What is called IC50 is the point on the concentration scale where inhibition reaches its midpoint.

For one assay, the system named is IL-1β. In words: Inhibition of LPS-stimulated IL-1β in THP-1 cells (ELISA). The class given is cell-based, human. The note with it: Homo sapiens, 10 micromolar, read-out: Percent Inhibition of IL1-β. The method, then: Compounds in the present invention were tested in THP-1 cells, a human monocyte cell line, to assess the inhibition of the inflammatory cytokine IL-1β. THP-1 cells (ATCC TIB-202) were grown in culture and seeded in 96 well plates at a concentration of 200,000 cells per well with a total volume of 150 μL. Plated cells were incubated overnight at 37 degrees C. under an atmosphere of 5% CO2. Media was removed from cells which were washed with PBS. Test compounds were diluted in DMSO stock solution and serially diluted appropriately for initial screening and IC50 determinations. LPS in serum free media (140 μL of […]) was added to each well to stimulate IL-1β production. IL-1β was measured by ELISA assay kit (R&D Systems) per the manufacturers instructions.
IC50 values for the inhibition of IL-1 in THP 1 cells were determined from dose response studies.

Another assay addresses T1, Caspase-3 (Homo sapiens, UniProt P42574).
T1 construct: purchased Enzo Biosciences
T1 sequence (P42574 29-175 limits assumed): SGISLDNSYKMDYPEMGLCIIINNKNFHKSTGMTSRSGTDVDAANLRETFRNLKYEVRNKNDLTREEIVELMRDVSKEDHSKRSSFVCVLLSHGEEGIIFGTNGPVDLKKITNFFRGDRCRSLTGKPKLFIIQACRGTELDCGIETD
T1 sequence (P42574 176-277 limits assumed): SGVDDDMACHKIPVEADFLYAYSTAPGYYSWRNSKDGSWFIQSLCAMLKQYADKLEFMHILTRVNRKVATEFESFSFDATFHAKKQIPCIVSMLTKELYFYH
In words: Caspase-3 enzymatic inhibition assay, IC50. The class given is biochemical. The note with it: read-out: Caspase 3 enzyme inhibition IC50. The method, then: (§1) Human caspases were purchased from Enzo Biosciences and used according to the manufacturer's instructions. An exemplary caspase assay, for Caspase-1, is provided below:
(§2) Enzymatic assays were conducted for Caspase-3, 6 and 7 activity according to the manufacture's instructions.

A further assay addresses T2, Caspase 6 (Homo sapiens, UniProt P55212).
T2 construct: purchased Enzo Biosciences
T2 sequence (P55212 24-179 limits assumed): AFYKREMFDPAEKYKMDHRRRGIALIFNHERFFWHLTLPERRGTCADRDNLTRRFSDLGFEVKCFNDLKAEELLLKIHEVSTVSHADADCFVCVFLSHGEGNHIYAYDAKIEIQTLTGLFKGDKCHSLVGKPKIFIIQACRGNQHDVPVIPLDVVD
T2 sequence (P55212 194-293 limits assumed): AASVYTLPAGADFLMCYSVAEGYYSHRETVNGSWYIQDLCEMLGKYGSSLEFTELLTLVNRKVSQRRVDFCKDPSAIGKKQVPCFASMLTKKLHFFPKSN
In words: Caspase 6 enzymatic inhibition assay, IC50. The class given is biochemical. Conditions: read-out: Caspase 6 enzyme inhibition IC50. As to the method: as §1, §2

For a further assay, the target named is T3, Caspase-1 (Homo sapiens, UniProt P29466).
T3 construct: purchased Enzo Biosciences
T3 sequence (P29466 120-297 limits assumed): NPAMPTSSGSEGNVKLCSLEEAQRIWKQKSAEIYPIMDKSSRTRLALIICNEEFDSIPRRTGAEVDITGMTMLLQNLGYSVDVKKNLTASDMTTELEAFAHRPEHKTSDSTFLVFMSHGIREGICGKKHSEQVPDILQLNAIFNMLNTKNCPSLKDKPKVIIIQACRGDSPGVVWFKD
T3 sequence (P29466 317-404 limits assumed): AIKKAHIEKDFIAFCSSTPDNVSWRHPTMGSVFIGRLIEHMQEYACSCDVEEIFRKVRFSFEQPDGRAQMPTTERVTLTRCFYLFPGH
As to the kind of experiment: Caspase-1 enzyme inhibition assay (Ac-YVAD-pNA substrate), IC50. The class given is biochemical. As to the method: as §1
Caspase-1 was diluted to 10 U/μl in assay buffer consisting of 50 mM HEPES, pH 7.4, 100 mM NaCl, 0.1% CHAPS, 1 mM EDTA, 10% glycerol and 10 mM DTT.
45 μl of assay buffer was added into ½ volume microtiter plate. The plate was allowed to equilibrate to assay temperature. 5 μl of Caspase-1 (10 U/μl) was added to each appropriate well. Two 2 blank wells containing assay buffer alone without Caspase-1 were included on the plate.
The reaction was started by the addition of 50 μl Ac-YVAD-pNA substrate, for a final substrate concentration of 200 μM. The reaction was continuously monitored at 405 nm. The data was graphed as OD405 nm vs time, and the slope was determined over the linear portion of the curve. The rates in OD/min were converted to substrate/min using an extinction coefficient for p-nitroaniline of 10,500M-1 cm-1, and were adjusted for pathlength of sample. […]

Another assay concerns Jurkat cells. As to the kind of experiment: Prevention of Fas-induced apoptosis in Jurkat cells (WST-8). The assay is classed as cell-based. Conditions: Homo sapiens, 10 micromolar, read-out: % Prevention of Fas - induced Jurkat cell apoptosis at 10 micromolar. The method, then: Compounds of the present invention were evaluated in Jurkat cells, a human T-lymphocyte cell line, to evaluate compounds ability to inhibit apoptotic cell death. Jurkat cells, Clone E6-1 (ATCC TIB-152) were grown in culture maintain a cell density between 0.5-2 million cells/mL. Cells were tested for viability and countion with typan blue stain before use. Test compounds were addedd to 96 well plates and Jurkat cells were added at a concentration of approximately 100,000 cells per well and mixed thoroughly by action of pipetting. Plated cells were incubated for 1 hour at 37 degrees C. under an atmosphere of 5% CO2. Anti-Fas antibody was added and mixed by pipet action. Plates were incubated for 20 hours at 37 degrees C. under an atmosphere of 5% CO2. 10 microliters of thawed WST-8 solution was added to each well and incubated for 4 hours. Absorbance was measured at 450 nm and control reading at […] using a SpectraMax ID5 plate reader. Apoptotic cell death is executed by caspases 3, 7 and 6. Compounds that lack activity against these caspases will not prevent the death of Jurkat cells and is a functional test of selectivity for inflammatory over apoptotic caspases.
IC50 values to protect against Fas induced apoptosis and improve survival of Jurkat cells were determined from dose response studies.

In a further assay the target is T4, Caspase 7 (Homo sapiens, UniProt P55210).
T4 construct: purchased Enzo Biosciences
T4 sequence (P55210 24-198 limits assumed): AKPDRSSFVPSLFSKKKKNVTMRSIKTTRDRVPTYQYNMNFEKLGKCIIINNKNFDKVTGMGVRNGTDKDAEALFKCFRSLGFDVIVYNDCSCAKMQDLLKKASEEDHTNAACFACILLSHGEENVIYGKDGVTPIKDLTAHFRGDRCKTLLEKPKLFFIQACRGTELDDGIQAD
T4 sequence (P55210 207-303 limits assumed): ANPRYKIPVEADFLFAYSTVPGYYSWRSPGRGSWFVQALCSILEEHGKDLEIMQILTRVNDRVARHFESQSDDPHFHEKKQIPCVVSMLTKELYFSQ
As to the kind of experiment: Caspase 7 enzymatic inhibition assay, IC50. The assay is classed as biochemical. Conditions: read-out: Caspase 7 enzyme inhibition IC50. As to the method: as §1, §2

Each structure is given as a SMILES string.

`O=C(O)CC[C@H](NC(=O)Cn1ccc2ccc(Cl)cc2c1=O)C(=O)COc1c(F)c(F)cc(F)c1F` [Example 16, (S)-4-(2-(7-Chloro-1-oxoisoquinolin-2(1H)-yl)acetamido)-5-oxo-6-(2,3,5,6-tetrafluorophenoxy)hexanoic acid]: the inhibition at 10 µM was above 90% with IL-1β and at most 10% in the assay with Jurkat cells. For the same molecule, the IC50 on Caspase-3 was at least 1000 nM; at Caspase 6 it was at least 1000 nM; at Caspase-1 it was at most 10 nM; at Caspase 7, at least 1000 nM.
Turning to `C[C@H](NC(=O)C(=O)Nc1c(F)cccc1F)C(=O)N[C@@H](CCOCc1ccc(Cl)cc1)C(=O)COc1c(F)c(F)cc(F)c1F` [Example 3, N^1—((S)-1-(((S)-5-((4-Chlorobenzyl)oxy)-2-oxo-1-(2,3,5,6-tetrafluorophenoxy)pentan-3-yl)amino)-1-oxopropan-2-yl)-N^2-(2,6-difluorophenyl)oxalamide], the inhibition at 10 µM in the assay on IL-1β was 25 to 50%; with Jurkat cells it was at most 10%. The half-maximal inhibitory concentration (IC50) was at least 1000 nM on Caspase-3, at least 1000 nM at Caspase 6, 100 to 1000 nM on Caspase-1 and at least 1000 nM on Caspase 7.
Turning to `O=C(O)CC[C@H](NC(=O)CNC(=O)C(=O)Nc1c(F)cccc1F)C(=O)COc1c(F)c(F)cc(F)c1F` [Example 9, (S)-4-(2-(2-((2,6-difluorophenyl)amino)-2-oxoacetamido)acetamido)-5-oxo-6-(2,3,5,6-tetrafluorophenoxy)hexanoic acid], the results for the inhibition at 10 µM with IL-1β and with Jurkat cells were above 90% and at most 10%, respectively. In addition, the IC50 is at least 1000 nM at Caspase-3, at least 1000 nM at Caspase 6, at most 10 nM on Caspase-1 and at least 1000 nM on Caspase 7.
On to `C[C@H](NC(=O)C(=O)Nc1ccccc1C(C)(C)C)C(=O)N[C@@H](CCC(=O)O)C(=O)COc1c(F)c(F)cc(F)c1F` [Example 11, (S)-4-((S)-2-(2-((2-(tert-Butyl)phenyl)amino)-2-oxoacetamido)propanamido)-5-oxo-6-(2,3,5,6-tetrafluorophenoxy)hexanoic acid], for which the inhibition at 10 µM in the assay with IL-1β was above 90%; in the assay on Jurkat cells, at most 10%. Further, the IC50 on Caspase-3 is at least 1000 nM; on Caspase 6, at least 1000 nM; against Caspase-1 it was at most 10 nM; on Caspase 7, 100 to 1000 nM.
Turning to `Cc1cccc(NC(=O)C(=O)N[C@@H](C)C(=O)N[C@@H](CCC(=O)O)C(=O)COc2c(F)c(F)cc(F)c2F)c1` [Example 20, (S)-4-((S)-2-(2-((3-methylphenyl)amino)-2-oxoacetamido)propanamido)-5-oxo-6-(2,3,5,6-tetrafluorophenoxy)hexanoic acid], the results for the inhibition at 10 µM in the assay with IL-1β and in the assay with Jurkat cells were above 90% and at most 10%, respectively. Further, the IC50 on Caspase-3 is at least 1000 nM; on Caspase 6 it was at least 1000 nM; at Caspase-1 it was at most 10 nM; on Caspase 7, at least 1000 nM.
Regarding `C[C@H](NC(=O)C(=O)Nc1c(F)cccc1F)C(=O)N[C@@H](CCC(=O)O)C(=O)COc1cc(C(F)(F)F)cc(C(F)(F)F)c1` [Example 10, (S)-6-(3,5-bis(trifluoromethyl)phenoxy)-4-((S)-2-(2-((2,6-difluorophenyl)amino)-2-oxoacetamido)propanamido)-5-oxohexanoic acid], the figures for the inhibition at 10 µM in the assay with IL-1β and in the assay on Jurkat cells were above 90% and at most 10%, respectively. Moreover, the half-maximal inhibitory concentration (IC50) at Caspase-3 is at least 1000 nM; at Caspase 6, at least 1000 nM; against Caspase-1, at most 10 nM; at Caspase 7, at least 1000 nM.
Take `Cc1ccc(NC(=O)C(=O)N[C@@H](C)C(=O)N[C@@H](CCC(=O)O)C(=O)COc2c(F)c(F)cc(F)c2F)cc1` [Example 19, (S)-4-((S)-2-(2-((4-methylphenyl)amino)-2-oxoacetamido)propanamido)-5-oxo-6-(2,3,5,6-tetrafluorophenoxy)hexanoic acid]: the inhibition at 10 µM was above 90% in the assay with IL-1β and at most 10% in the assay on Jurkat cells. Further, the IC50 on Caspase-3 is at least 1000 nM; on Caspase 6, at least 1000 nM; on Caspase-1, at most 10 nM; at Caspase 7, at least 1000 nM.
For the molecule `CC(C)(NC(=O)C(=O)Nc1c(F)cccc1F)C(=O)N[C@@H](CCC(=O)O)C(=O)COc1c(F)c(F)cc(F)c1F` [Example 12, (S)-4-(2-(2-((2,6-Difluorophenyl)amino)-2-oxoacetamido)-2-methylpropanamido)-5-oxo-6-(2,3,5,6-tetrafluorophenoxy)hexanoic acid], the inhibition at 10 µM with IL-1β was above 90%; in the assay with Jurkat cells, at most 10%. In addition, the concentration for half-maximal inhibition (IC50) is at least 1000 nM on Caspase-3, at least 1000 nM at Caspase 6, at most 10 nM against Caspase-1 and at least 1000 nM at Caspase 7.
`C[C@H](NC(=O)C(=O)Nc1cccc(F)c1)C(=O)N[C@@H](CCC(=O)O)C(=O)COc1c(F)c(F)cc(F)c1F` [Example 18, (S)-4-((S)-2-(2-((3fluorophenyl)amino)-2-oxoacetamido)propanamido)-5-oxo-6-(2,3,5,6-tetrafluorophenoxy)hexanoic acid]: the inhibition at 10 µM in the assay with IL-1β was above 90%; in the assay on Jurkat cells it was at most 10%. Besides, the half-maximal inhibitory concentration (IC50) on Caspase-3 is at least 1000 nM; at Caspase 6, at least 1000 nM; against Caspase-1, at most 10 nM; at Caspase 7 it was at least 1000 nM.
With `C[C@H](NC(=O)C(=O)Nc1c(F)cccc1F)C(=O)N[C@@H](CCOCc1ccccc1)C(=O)COc1c(F)c(F)cc(F)c1F` [Example 1, N^1-((S)-1-(((S)-5-(Benzyloxy)-2-oxo-1-(2,3,5,6-tetrafluorophenoxy)pentan-3-yl)amino)-1-oxopropan-2-yl)-N^2-(2,6-difluorophenyl)oxalamide], the inhibition at 10 µM in the assay on IL-1β was 50 to 90%; in the assay on Jurkat cells, at most 10%. Further, the IC50 at Caspase-3 is at least 1000 nM; on Caspase 6, at least 1000 nM; against Caspase-1, 10 to 100 nM; on Caspase 7, at least 1000 nM.

The record behind these values is patent US11597703B2, “Caspase inhibitors and methods of use thereof” (Histogen Inc., priority 2019, dated 2023).
